Columns and labels:
Format in all cases: cell-based
[1] = test system: MDA-MB-231 (231) cells; assay: subG1 (hypodiploid) fraction by flow cytometry, 231 cells
Procedure: (§1) Trypsinized cells were resuspended in PBS at 10^6 cells/ml. Cells were then fixed by addition of ice-cold 70% ethanol. Ethanol-fixed cells were kept overnight at 4° C. before staining. Cells were pelleted and washed twice with PBS. Cell pellets were incubated for an hour at room temperature with mouse anti-MPM-2 antibody (Millipore, Mass., USA), followed by 1 h incubation with Alexa-488 anti-mouse secondary antibody (Life Technologies, NY, USA). Finally cells were washed, pelleted and resuspended in propidium iodide-containing isotonic buffer (0.1 mg/mL) and 0.5% Triton X-100. Cell cycle distribution was determined by flow cytometry using an LSR Fortessa Flow cytometer (BD Biosciences, CA, USA) and analyzed using Flowjo software (Tree Star, OR, USA). […] The duration, highest degree, and rapidity of onset of MA varied between drugs, drug concentrations, and cell lines (FIGS. 2A, 2B). In general, the maximum MA achieved was less pronounced in Nos- and PJ-treated cells (FIGS. 2A, 2B). Drug-induced onset of MA was corroborated by substantial increases in cyclin B1 levels in all cell lines (FIG. 2C). […] Instances where the subG1 fraction was elevated without cleaved caspase-3 may either represent caspase-independent cell death or the presence of hypodiploid cells whose fate is unclear.

[2] = test system: HeLa cells; assay: subG1 (hypodiploid) fraction by flow cytometry, HeLa cells
Procedure: as §1

[3] = test system: adult human dermal fibroblasts (HDF); assay: subG1 (hypodiploid) fraction by flow cytometry, HDFs
[4] = test system: MCF10A cells; assay: Centrosome amplification (CA) by microscopy, MCF10A cells; details: interphase and mitotic cells, over 24 h
Procedure: (§2) Consequently, CA was assessed in cultures treated with different concentrations of declustering drugs for 6, 12, 18, or 24 h and untreated controls via microscopy. Centrosomes were identified by γ-tubulin and centrin-2 colocalization at discrete foci. […] The peak percent CA detected over 24 h is shown in FIG. 6 (only statistically significant (P<0.05) increases over control values are represented in the Figures). Representative confocal micrographs of CA in interphase and mitotic cells, both control and drug treated, are depicted in FIG. 7. No significant correlations between the degree of CA (FIG. 5A) and the expression levels of PLK4, Cyclin E, and Aurora A were found (FIG. 4).
To determine whether the CA-inducing activity of declustering drugs is restricted to cancer cells, two non-malignant cell lines, mammary fibrocystic (MCF10A) cells and adult human dermal fibroblasts were treated with these drugs. Neither one of RBN, GF or PJ induced CA or cell death (Table 8) in these cell lines. […] In comparison, 10 and 25 μM RBN increased peak CA over controls in interphase cells (p<0.001 and p=0.001, respectively), with the lower concentration dramatically augmenting peak CA to 56% of cells versus 15% for the higher dose (FIG. 9B). Only 10 but not 25 μM RBN increased the extent of CA in mitotic cells, and this upregulation was only slight (10%, p=0.041).

[5] = test system: MDA-MB-231 (231), PC3, and HeLa cells; assay: Mitotic arrest (MA) by flow cytometry (MPM2/PI), across cell lines; details: coarse-grained categories
Procedure: Trypsinized cells were resuspended in PBS at 10^6 cells/ml. Cells were then fixed by addition of ice-cold 70% ethanol. Ethanol-fixed cells were kept overnight at 4° C. before staining. Cells were pelleted and washed twice with PBS. Cell pellets were incubated for an hour at room temperature with mouse anti-MPM-2 antibody (Millipore, Mass., USA), followed by 1 h incubation with Alexa-488 anti-mouse secondary antibody (Life Technologies, NY, USA). Finally cells were washed, pelleted and resuspended in propidium iodide-containing isotonic buffer (0.1 mg/mL) and 0.5% Triton X-100. Cell cycle distribution was determined by flow cytometry using an LSR Fortessa Flow cytometer (BD Biosciences, CA, USA) and analyzed using Flowjo software (Tree Star, OR, USA).
To evaluate the impact of putative declustering drugs on cell cycle progression and hypodiploidy (<2N DNA content, which may indicate apoptotic cells), MDA-MB-231 (231), PC3, and HeLa cells were treated with different concentrations of declustering drugs, stained with propidium iodide, labeled with anti-MPM2 antibody, and then assessed by flow cytometry at multiple time points over 48 h. […] The duration, highest degree, and rapidity of onset of MA varied between drugs, drug concentrations, and cell lines (FIGS. 2A, 2B). In general, the maximum MA achieved was less pronounced in Nos- and PJ-treated cells (FIGS. 2A, 2B). […]

[6] = test system: 231, HeLa and PC3 cells; assay: Centrosome amplification (CA) by microscopy, all cancer cell lines tested
Procedure: as §2
To better understand the “potency” of drug-induced CA with time, the average fold change in CA over controls over 24 h was assessed (FIG. 5A), whereby the extent of CA across time points (i.e., 6, 12, 18, and 24 h) was averaged and then divided by the extent of CA in control (i.e., 0 h). All of the drugs at least doubled the peak extent of CA in all cell lines tested (FIG. 5A), although the final extent of CA could be small or large in magnitude depending on the initial centrosomal burden as shown in FIG. 4. […] The extent of CA was less in interphase cells, with maximum values of 31% and 87% for 10 and 25 μM RBN (FIG. 6A). […]

## reduced bromonoscapine [RBN]
[1]; 10 μM
  Peak subG1 percent over 48 h: 47.0%
[1]; 25 μM
  Peak subG1 percent over 48 h: 80.8%
  maximum subG1 fraction relative to control: 25 × control
[2]; 10 μM
  Peak subG1 percent over 48 h: 54.1%
  maximum subG1 fraction relative to control: 9 × control
[2]; 25 μM
  Peak subG1 percent over 48 h: 75.6%
[3]; 10 μM
  Peak subG1 percent over 48 h: 35.9%
[3]; 25 μM
  Peak subG1 percent over 48 h: 39.9%
[4]
  change of CA over control levels (in words): significantly increased the peak extent of CA in interphase and mitotic MCF10A cells
[5]
  peak MA (MA:HR), cells in MA: ≥ 30%
[6]
  induction of CA: induced CA in all three cell lines
